Experiments:
Experiment in all cases: HDAC enzyme activity in vitro
Format in all cases: biochemical
[1] = target: HDAC4 (Homo sapiens, UniProt P56524)
[2] = target: HDAC2 (Homo sapiens, UniProt Q92769)
[3] = target: HDAC3 (Homo sapiens, UniProt O15379)
Sequence of HDAC3 (O15379 whole entry): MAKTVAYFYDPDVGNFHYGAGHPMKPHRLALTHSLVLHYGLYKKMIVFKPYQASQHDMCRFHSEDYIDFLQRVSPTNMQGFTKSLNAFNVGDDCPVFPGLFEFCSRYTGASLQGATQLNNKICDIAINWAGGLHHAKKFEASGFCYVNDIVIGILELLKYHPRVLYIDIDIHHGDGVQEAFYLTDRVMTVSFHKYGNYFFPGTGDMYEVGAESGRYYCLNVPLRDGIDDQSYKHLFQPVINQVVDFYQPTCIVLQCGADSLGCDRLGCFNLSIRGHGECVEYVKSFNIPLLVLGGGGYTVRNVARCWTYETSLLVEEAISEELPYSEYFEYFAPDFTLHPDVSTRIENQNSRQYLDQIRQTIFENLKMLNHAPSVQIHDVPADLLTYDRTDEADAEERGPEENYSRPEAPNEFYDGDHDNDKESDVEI
Sequence of HDAC3 (Q9Y618 395-489 partner limits assumed): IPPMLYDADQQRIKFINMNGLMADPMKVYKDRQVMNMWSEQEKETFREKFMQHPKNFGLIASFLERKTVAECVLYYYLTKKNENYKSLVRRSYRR

Sequence of HDAC4 (P56524 whole entry): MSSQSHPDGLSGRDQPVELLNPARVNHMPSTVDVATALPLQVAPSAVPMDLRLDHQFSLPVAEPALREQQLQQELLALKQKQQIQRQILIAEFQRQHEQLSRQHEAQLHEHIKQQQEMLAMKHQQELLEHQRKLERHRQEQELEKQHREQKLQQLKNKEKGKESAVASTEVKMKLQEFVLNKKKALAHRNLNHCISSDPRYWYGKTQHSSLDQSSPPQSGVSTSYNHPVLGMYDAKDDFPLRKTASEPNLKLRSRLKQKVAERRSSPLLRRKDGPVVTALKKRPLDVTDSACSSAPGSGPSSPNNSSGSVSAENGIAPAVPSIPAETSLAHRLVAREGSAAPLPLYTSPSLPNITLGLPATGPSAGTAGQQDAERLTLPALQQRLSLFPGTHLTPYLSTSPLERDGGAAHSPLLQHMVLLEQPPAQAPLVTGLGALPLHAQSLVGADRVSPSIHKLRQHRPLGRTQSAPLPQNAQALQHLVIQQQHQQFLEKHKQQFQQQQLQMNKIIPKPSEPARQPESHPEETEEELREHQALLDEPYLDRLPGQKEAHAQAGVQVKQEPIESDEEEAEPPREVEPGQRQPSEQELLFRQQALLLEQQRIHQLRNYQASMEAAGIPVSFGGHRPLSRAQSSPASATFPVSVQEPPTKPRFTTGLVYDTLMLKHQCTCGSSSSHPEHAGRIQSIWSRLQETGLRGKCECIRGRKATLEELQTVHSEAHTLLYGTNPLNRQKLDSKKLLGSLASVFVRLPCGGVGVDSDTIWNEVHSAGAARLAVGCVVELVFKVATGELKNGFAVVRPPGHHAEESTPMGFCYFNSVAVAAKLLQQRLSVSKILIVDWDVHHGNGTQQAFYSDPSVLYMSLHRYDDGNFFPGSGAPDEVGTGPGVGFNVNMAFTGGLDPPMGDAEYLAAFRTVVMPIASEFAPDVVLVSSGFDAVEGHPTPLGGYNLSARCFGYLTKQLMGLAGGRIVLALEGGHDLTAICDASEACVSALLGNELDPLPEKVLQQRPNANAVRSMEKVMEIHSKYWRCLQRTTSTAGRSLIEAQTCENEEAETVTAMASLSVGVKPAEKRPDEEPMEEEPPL
Sequence of HDAC2 (Q92769 whole entry): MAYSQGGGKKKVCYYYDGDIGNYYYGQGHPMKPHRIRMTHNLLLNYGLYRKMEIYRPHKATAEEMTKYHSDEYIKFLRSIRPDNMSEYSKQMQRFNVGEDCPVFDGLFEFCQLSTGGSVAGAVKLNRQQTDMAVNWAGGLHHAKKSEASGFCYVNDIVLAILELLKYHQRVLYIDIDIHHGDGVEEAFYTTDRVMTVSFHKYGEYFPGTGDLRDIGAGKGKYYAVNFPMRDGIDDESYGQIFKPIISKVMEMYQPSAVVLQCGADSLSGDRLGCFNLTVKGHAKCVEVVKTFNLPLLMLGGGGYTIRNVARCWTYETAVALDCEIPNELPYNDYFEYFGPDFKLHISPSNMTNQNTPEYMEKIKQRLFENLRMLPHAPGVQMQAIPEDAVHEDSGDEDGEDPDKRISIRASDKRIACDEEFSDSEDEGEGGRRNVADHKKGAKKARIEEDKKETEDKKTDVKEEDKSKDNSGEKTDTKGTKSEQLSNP

Question: What does the source list for CN(Cc1nc2c(N3CCOCC3)nc(-c3ccc(N)cc3)nc2n1C)c1ncc(C(=O)NO)cn1.CS(=O)(=O)O [PM, 2-(((2-(4-Aminophenyl)-9-methyl-6-(4-morpholinyl)-9H-purine-8-yl)methyl)methylamino)-N-hydroxy-5-pyrimidine-carboxamide Mesylate]?
Answer: IC50 [1]: 1070 nM; IC50 [2]: 1.4 nM; IC50 [3]: 1.7 nM

Reference: PMC12198407, “Preclinical and first-in-human of purinostat mesylate, a novel selective HDAC I/IIb inhibitor, in relapsed/refractory multiple myeloma and lymphoma” (Signal Transduction and Targeted Therapy, 2025)
